These results are taken from patent US11597727B2 (THE REGENTS OF THE UNIVERSITY OF CALIFORNIA, priority 2018, dated 2023).

T1 sequence (P17301 30-1181): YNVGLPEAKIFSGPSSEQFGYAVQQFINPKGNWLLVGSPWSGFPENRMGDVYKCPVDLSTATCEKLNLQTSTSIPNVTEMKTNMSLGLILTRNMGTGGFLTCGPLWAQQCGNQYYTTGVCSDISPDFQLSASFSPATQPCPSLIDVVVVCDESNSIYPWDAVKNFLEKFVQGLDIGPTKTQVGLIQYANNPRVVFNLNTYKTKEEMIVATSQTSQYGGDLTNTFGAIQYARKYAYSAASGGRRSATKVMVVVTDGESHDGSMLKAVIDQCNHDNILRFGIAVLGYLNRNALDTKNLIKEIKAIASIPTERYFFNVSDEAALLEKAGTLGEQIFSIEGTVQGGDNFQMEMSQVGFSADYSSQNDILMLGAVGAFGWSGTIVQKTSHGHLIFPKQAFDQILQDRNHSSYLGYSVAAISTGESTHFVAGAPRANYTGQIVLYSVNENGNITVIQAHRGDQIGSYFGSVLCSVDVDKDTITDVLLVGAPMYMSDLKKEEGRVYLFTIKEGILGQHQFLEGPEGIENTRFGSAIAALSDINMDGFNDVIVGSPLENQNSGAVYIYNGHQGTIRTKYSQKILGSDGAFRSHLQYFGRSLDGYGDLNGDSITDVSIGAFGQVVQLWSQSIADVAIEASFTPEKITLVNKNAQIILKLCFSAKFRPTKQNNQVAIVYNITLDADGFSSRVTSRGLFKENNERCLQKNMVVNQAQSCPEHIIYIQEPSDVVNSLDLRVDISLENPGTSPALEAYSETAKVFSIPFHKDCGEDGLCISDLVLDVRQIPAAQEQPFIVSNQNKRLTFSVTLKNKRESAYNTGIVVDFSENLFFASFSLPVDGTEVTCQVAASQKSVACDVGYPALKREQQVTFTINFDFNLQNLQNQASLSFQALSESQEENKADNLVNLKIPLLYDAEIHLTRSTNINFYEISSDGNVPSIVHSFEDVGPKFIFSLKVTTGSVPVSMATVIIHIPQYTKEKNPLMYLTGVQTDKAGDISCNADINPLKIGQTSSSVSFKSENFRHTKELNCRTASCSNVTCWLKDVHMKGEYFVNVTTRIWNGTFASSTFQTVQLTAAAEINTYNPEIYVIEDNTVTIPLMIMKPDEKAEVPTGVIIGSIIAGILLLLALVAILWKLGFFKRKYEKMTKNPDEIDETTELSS
T1 sequence (P05556 21-798): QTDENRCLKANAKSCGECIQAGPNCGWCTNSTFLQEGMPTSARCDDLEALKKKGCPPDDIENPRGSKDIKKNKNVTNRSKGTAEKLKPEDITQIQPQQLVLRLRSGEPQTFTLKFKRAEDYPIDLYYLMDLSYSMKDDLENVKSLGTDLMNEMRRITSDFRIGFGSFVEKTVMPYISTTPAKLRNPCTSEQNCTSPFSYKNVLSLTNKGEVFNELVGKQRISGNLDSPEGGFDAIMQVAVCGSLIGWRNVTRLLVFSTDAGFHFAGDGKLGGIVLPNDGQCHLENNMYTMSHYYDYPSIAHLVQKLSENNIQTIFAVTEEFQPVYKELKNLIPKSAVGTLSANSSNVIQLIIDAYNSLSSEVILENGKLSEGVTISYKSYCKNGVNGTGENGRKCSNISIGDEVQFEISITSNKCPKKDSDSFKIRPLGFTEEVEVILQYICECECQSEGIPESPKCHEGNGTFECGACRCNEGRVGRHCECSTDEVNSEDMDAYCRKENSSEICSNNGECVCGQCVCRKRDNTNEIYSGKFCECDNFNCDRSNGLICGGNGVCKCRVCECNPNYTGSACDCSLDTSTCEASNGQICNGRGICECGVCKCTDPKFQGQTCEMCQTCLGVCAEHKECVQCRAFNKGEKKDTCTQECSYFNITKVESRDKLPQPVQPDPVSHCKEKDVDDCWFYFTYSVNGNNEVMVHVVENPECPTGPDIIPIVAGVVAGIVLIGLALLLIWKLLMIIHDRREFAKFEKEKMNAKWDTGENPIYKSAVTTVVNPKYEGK

For one assay, the target named is T1, integrin α2β1 (Homo sapiens, UniProt P05556+P17301). As to the kind of experiment: HT 1080 cell adhesion assay on rat tail collagen I. In kind it is cell-based. The arrangement: HT1080 (human fibrosarcoma) cells (or human airway smooth muscle cells) were detached and resuspended in serum-free DMEM; endogenous in cells; host or cells: HT1080 human fibrosarcoma cells. The settings on record: HT1080 (human fibrosarcoma) cells on rat tail collagen I, absorbance at 595 nm, triplicate; read-out: IC50s from HT 1080 Cell adhesion assay. As for the experimental part:
(§1) Cell adhesion Assay: Ninety-six-well flat-bottomed tissue culture plates were coated with rat tail collagen I for 1 hour at 37° C. After incubation, wells were blocked with 1% BSA at 37° C. for 1 hour. Control wells were filled with 1% BSA. HT1080 (human fibrosarcoma) cells (or human airway smooth muscle cells) were detached and resuspended in serum-free DMEM. Cells were incubated with anti-integrin alpha2 antibody control or 10-fold dilutions of each compound with a starting concentration of 10 uM for 15 minutes at 4° C. before plating. The plates were centrifuged at 10 g for 5 minutes before incubation for 1 hour at 37° C. in humidified 5% CO2. Nonadherent cells were removed by centrifugation (top side down) at 10 g for 5 minutes. Attached cells were stained with 0.5% crystal violet, and the wells were washed with PBS. The relative number of cells in each well was evaluated after solubilization in 40 μl of 2% Triton X-100 by measuring absorbance at 595 nm in a microplate reader. All determinations were carried out in triplicate.
Regarding `C[C@H](NC(=O)NC[C@H](NC(=O)c1c(Cl)cccc1Cl)C(=O)O)c1ccccc1` [KZ-1-13, (S)-2-(2,6-dichlorobenzamido)-3-(3-((S)-1-phenylethyl)ureido)propanoic acid], the IC50 is greater than 100 µM.
Consider `CCC(CC)C(=O)N[C@@H](CNC(=O)NCc1ccccc1)C(=O)O` [A2-38, (S)-3-(3-benzylureido)-2-(2-ethylbutanamido)propanoic acid], for which the IC50 was greater than 100 µM.
On the same count and under the same terms, under `CC(C)(C)NC(=O)NC[C@H](NC(=O)c1c(Cl)cccc1Cl)C(=O)O` stands greater than 100 µM.
With `CC(C)(C)OC(=O)NC[C@H](NC(=O)c1c(Cl)cccc1Cl)C(=O)O` [A2-39, (S)-3-((tert-butoxycarbonyl)amino)-2-(2,6-dichlorobenzamido)propanoic acid], the IC50 lay in the range of 10 to 100 µM.
On the same count and under the same terms, to `O=C(NCCC12CC3CC(CC(C3)C1)C2)NC[C@H](NC(=O)c1c(Cl)cccc1Cl)C(=O)O` [A2-154, (S)-3-(3-(2-(adamantan-1-yl)ethyl)ureido)-2-(2,6-dichlorobenzamido)propanoic acid] belongs 10 to 100 µM; to `O=C(NCC1CC2CCC1CC2)NC[C@H](NC(=O)c1c(Cl)cccc1Cl)C(=O)O` (stereo partly shown) [A2-175], 10 to 100 µM; to `O=C(NC[C@H](NC(=O)c1c(Cl)cccc1Cl)C(=O)O)NC1C2CC3CC(C2)CC1C3` (stereo partly drawn) [A2-130, (S)-3-(3-(adamantan-2-yl)ureido)-2-(2,6-dichlorobenzamido)propanoic acid], less than 10 µM.
Still for that read-out and setting: to `CC1(C)C2CCC1(C)C(NC(=O)NC[C@H](NC(=O)c1c(Cl)cccc1Cl)C(=O)O)C2` (stereo partly drawn) [A2-171, (2S)-2-(2,6-dichlorobenzamido)-3-(3-(1,7,7-trimethylbicyclo[2.2.1]heptan-2-yl)ureido)propanoic acid] belongs less than 10 µM; to `Cc1ccccc1CNC(=O)NC[C@H](NC(=O)c1c(Cl)cccc1Cl)C(=O)O` [KZ-1-39, (S)-2-(2,6-dichlorobenzamido)-3-(3-(2-methylbenzyl)ureido)propanoic acid], 10 to 100 µM; to `CCCNC(=O)NC[C@H](NC(=O)c1c(Cl)cccc1Cl)C(=O)O` [KZ-1-27, (S)-2-(2,6-dichlorobenzamido)-3-(3-propylureido)propanoic acid], greater than 100 µM.
Same read-out and setting: under `O=C(NCc1ccccc1)NC[C@H](NC(=O)c1c(F)cccc1Br)C(=O)O` [A2-36, (S)-3-(3-benzylureido)-2-(2-bromo-6-fluorobenzamido)propanoic acid] stands 10 to 100 µM; under `O=C(NC[C@H](NC(=O)c1c(Cl)cccc1Cl)C(=O)O)NC1CCc2ccccc2C1` (stereo partly drawn) [A2-126, (2S)-2-(2,6-dichlorobenzamido)-3-(3-(1,2,3,4-tetrahydronaphthalen-2-yl)ureido)propanoic acid], less than 10 µM.

The target of another assay is T1, integrin α2β1. The assay is described as follows: Cell adhesion assay, adhesion to collagen in vitro (cell type not stated for these values). In kind it is cell-based. The arrangement: endogenous in cells. The settings on record: compared with c15. As for the experimental part:
as §1
As for `O=C(NCc1ccccc1)NC[C@H](NC(=O)c1c(Cl)cccc1Cl)C(=O)O` [A2-4, (S)-3-(3-benzylureido)-2-(2,6-dichlorobenzamido)propanoic acid], the “fold less potent than c15 in a cell adhesion assay” value worked out at 2 fold.
